Reference: paper PMC11576293, “New series of 4,6-diaryl pyrimidines: facile synthesis and antiproliferative activity as dual EGFR/VEGFR-2 inhibitors” (Frontiers in Chemistry, 2024)

How the values were obtained:
Assay in all cases: NCI-60 single-dose screen
Assay type in all cases: cell-based
[1] = test system: TK-10; conditions: Homo sapiens, single dose 10 µM, '-' = no inhibition, read-out: % Growth Inhibition
In short: (§1)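 Single concentration of 10 μM applied to every line of the 60-cell-line NCI panel. Testing performed by NCI DTP.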

[2] = test system: A498; conditions: Homo sapiens, single dose 10 µM, '-' = no inhibition, read-out: % Growth Inhibition
In short: as §1

[3] = test system: UO-31; conditions: Homo sapiens, single dose 10 µM, '-' = no inhibition, read-out: % Growth Inhibition
In short: as §1

[4] = test system: OVCAR-4; conditions: Homo sapiens, single dose 10 µM, '-' = no inhibition, read-out: % Growth Inhibition
In short: as §1

[5] = test system: SK-MEL-28; conditions: Homo sapiens, single dose 10 µM, '-' = no inhibition, read-out: % Growth Inhibition
In short: as §1

[6] = test system: NCI-H23; conditions: Homo sapiens, single dose 10 µM, '-' = no inhibition, read-out: % Growth Inhibition
In short: as §1

[7] = test system: SK-MEL-2; conditions: Homo sapiens, single dose 10 µM, '-' = no inhibition, read-out: % Growth Inhibition
In short: as §1

[8] = test system: HCT-116; conditions: Homo sapiens, single dose 10 µM, '-' = no inhibition, read-out: % Growth Inhibition
In short: as §1

[9] = test system: LOX IMVI; conditions: Homo sapiens, single dose 10 µM, '-' = no inhibition, read-out: % Growth Inhibition
In short: as §1

[10] = test system: SN12C; conditions: Homo sapiens, single dose 10 µM, '-' = no inhibition, read-out: % Growth Inhibition
In short: as §1

[11] = test system: MCF7; conditions: Homo sapiens, single dose 10 µM, '-' = no inhibition, read-out: % Growth Inhibition
In short: as §1

[12] = test system: RPMI-8226; conditions: Homo sapiens, single dose 10 µM, '-' = no inhibition, read-out: % Growth Inhibition
In short: as §1

[13] = test system: K-562; conditions: Homo sapiens, K562, single dose 10 µM, '-' = no inhibition, read-out: % Growth Inhibition
In short: as §1

[14] = test system: KM12; conditions: Homo sapiens, single dose 10 µM, '-' = no inhibition, read-out: % Growth Inhibition
In short: as §1

[15] = test system: MALME-3M; conditions: Homo sapiens, single dose 10 µM, '-' = no inhibition, read-out: % Growth Inhibition
In short: as §1

[16] = test system: SF-268; conditions: Homo sapiens, single dose 10 µM, '-' = no inhibition, read-out: % Growth Inhibition
In short: as §1

[17] = test system: CAKI-1; conditions: Homo sapiens, single dose 10 µM, '-' = no inhibition, read-out: % Growth Inhibition
In short: as §1

[18] = test system: MDA-MB-435; conditions: Homo sapiens, single dose 10 µM, '-' = no inhibition, read-out: % Growth Inhibition
In short: as §1

[19] = test system: RXF 393; conditions: Homo sapiens, single dose 10 µM, '-' = no inhibition, read-out: % Growth Inhibition
In short: as §1

[20] = test system: NCI-H522; conditions: Homo sapiens, single dose 10 µM, '-' = no inhibition, read-out: % Growth Inhibition
In short: as §1

[21] = test system: SNB-75; conditions: Homo sapiens, single dose 10 µM, '-' = no inhibition, read-out: % Growth Inhibition
In short: as §1

[22] = test system: IGROV1; conditions: Homo sapiens, IGROV-1, single dose 10 µM, '-' = no inhibition, read-out: % Growth Inhibition
In short: as §1

[23] = test system: MDA-MB231/ATCC; conditions: Homo sapiens, MDA-MB-231, single dose 10 µM, '-' = no inhibition, read-out: % Growth Inhibition
In short: as §1

[24] = test system: SNB-19; conditions: Homo sapiens, single dose 10 µM, '-' = no inhibition, read-out: % Growth Inhibition
In short: as §1

[25] = test system: HL-60(TB); conditions: Homo sapiens, single dose 10 µM, '-' = no inhibition, read-out: % Growth Inhibition
[26] = test system: OVCAR-3; conditions: Homo sapiens, single dose 10 µM, '-' = no inhibition, read-out: % Growth Inhibition
In short: as §1

[27] = test system: SR; conditions: Homo sapiens, single dose 10 µM, '-' = no inhibition, read-out: % Growth Inhibition
In short: as §1

[28] = test system: OVCAR-5; conditions: Homo sapiens, single dose 10 µM, '-' = no inhibition, read-out: % Growth Inhibition
In short: as §1

[29] = test system: SK-MEL-5; conditions: Homo sapiens, single dose 10 µM, '-' = no inhibition, read-out: % Growth Inhibition
In short: as §1

[30] = test system: HOP-92; conditions: Homo sapiens, single dose 10 µM, '-' = no inhibition, read-out: % Growth Inhibition
In short: as §1

[31] = test system: DU-145; conditions: Homo sapiens, single dose 10 µM, '-' = no inhibition, read-out: % Growth Inhibition
In short: as §1

[32] = test system: HCC-2998; conditions: Homo sapiens, single dose 10 µM, '-' = no inhibition, read-out: % Growth Inhibition
In short: as §1

[33] = test system: COLO 205; conditions: Homo sapiens, single dose 10 µM, '-' = no inhibition, read-out: % Growth Inhibition
In short: as §1

[34] = test system: 786-0; conditions: Homo sapiens, single dose 10 µM, '-' = no inhibition, read-out: % Growth Inhibition
In short: as §1

[35] = test system: U251; conditions: Homo sapiens, U-251, single dose 10 µM, '-' = no inhibition, read-out: % Growth Inhibition
In short: as §1

[36] = test system: MDA-MB-468; conditions: Homo sapiens, single dose 10 µM, '-' = no inhibition, read-out: % Growth Inhibition
In short: as §1

[37] = test system: ACHN 1; conditions: Homo sapiens, single dose 10 µM, '-' = no inhibition, read-out: % Growth Inhibition
In short: as §1

[38] = test system: OVCAR-8; conditions: Homo sapiens, single dose 10 µM, '-' = no inhibition, read-out: % Growth Inhibition
In short: as §1

[39] = test system: HOP-62; conditions: Homo sapiens, single dose 10 µM, '-' = no inhibition, read-out: % Growth Inhibition
In short: as §1

[40] = test system: NCI-H460; conditions: Homo sapiens, single dose 10 µM, '-' = no inhibition, read-out: % Growth Inhibition
In short: as §1

[41] = test system: UACC-257; conditions: Homo sapiens, single dose 10 µM, '-' = no inhibition, read-out: % Growth Inhibition
In short: as §1

[42] = test system: NCI/ADR-RES; conditions: Homo sapiens, single dose 10 µM, '-' = no inhibition, read-out: % Growth Inhibition
In short: as §1

[43] = test system: UACC-62; conditions: Homo sapiens, single dose 10 µM, '-' = no inhibition, read-out: % Growth Inhibition
In short: as §1

[44] = test system: EKVX; conditions: Homo sapiens, single dose 10 µM, '-' = no inhibition, read-out: % Growth Inhibition
In short: as §1

[45] = test system: NCI-H322M; conditions: Homo sapiens, single dose 10 µM, '-' = no inhibition, read-out: % Growth Inhibition
In short: as §1

[46] = test system: BT-549; conditions: Homo sapiens, single dose 10 µM, '-' = no inhibition, read-out: % Growth Inhibition
In short: as §1

[47] = test system: A549/ATCC; conditions: Homo sapiens, single dose 10 µM, '-' = no inhibition, read-out: % Growth Inhibition
In short: as §1

[48] = test system: PC-3; conditions: Homo sapiens, single dose 10 µM, '-' = no inhibition, read-out: % Growth Inhibition
In short: as §1

## CCCSc1nc(-c2ccc(OC)cc2)cc(-c2cccc(OC)c2)n1 [Compound 18, 6-(3-Methoxyphenyl)-4-(4-methoxyphenyl)-2-(propylthio)pyrimidine]
[1]
  inhibition at 10 µM: < 0%
[2]
  inhibition at 10 µM: < 0%
[3]
  inhibition at 10 µM: < 0%
[4]
  inhibition at 10 µM: 3.94%
[5]
  inhibition at 10 µM: < 0%
[6]
  inhibition at 10 µM: < 0%
[7]
  inhibition at 10 µM: 3.6%
[8]
  inhibition at 10 µM: 3.37%
[9]
  inhibition at 10 µM: < 0%
[10]
  inhibition at 10 µM: < 0%
[11]
  inhibition at 10 µM: 17.3%
[12]
  inhibition at 10 µM: < 0%
[13]
  inhibition at 10 µM: 12.8%
[14]
  inhibition at 10 µM: 1.47%
[15]
  inhibition at 10 µM: < 0%
[16]
  inhibition at 10 µM: < 0%
[17]
  inhibition at 10 µM: 4%
[18]
  inhibition at 10 µM: 5.12%
[19]
  inhibition at 10 µM: < 0%
[20]
  inhibition at 10 µM: < 0%
[21]
  inhibition at 10 µM: < 0%
[22]
  inhibition at 10 µM: < 0%
[23]
  inhibition at 10 µM: < 0%
[24]
  inhibition at 10 µM: < 0%
[25]
  inhibition at 10 µM: 20.3%
[26]
  inhibition at 10 µM: < 0%
[27]
  inhibition at 10 µM: 14.9%
[28]
  inhibition at 10 µM: < 0%
[29]
  inhibition at 10 µM: 3.1%
[30]
  inhibition at 10 µM: < 0%
[31]
  inhibition at 10 µM: < 0%
[32]
  inhibition at 10 µM: < 0%
[33]
  inhibition at 10 µM: 0.86%
[34]
  inhibition at 10 µM: < 0%
[35]
  inhibition at 10 µM: < 0%
[36]
  inhibition at 10 µM: < 0%
[37]
  inhibition at 10 µM: < 0%
[38]
  inhibition at 10 µM: < 0%
[39]
  inhibition at 10 µM: < 0%
[40]
  inhibition at 10 µM: < 0%
[41]
  inhibition at 10 µM: < 0%
[42]
  inhibition at 10 µM: < 0%
[43]
  inhibition at 10 µM: < 0%
[44]
  inhibition at 10 µM: < 0%
[45]
  inhibition at 10 µM: < 0%
[46]
  inhibition at 10 µM: < 0%
[47]
  inhibition at 10 µM: 7.77%
[48]
  inhibition at 10 µM: < 0%

## COc1ccc(-c2cc(-c3cccc(OC)c3)nc(SC(C)C)n2)cc1 [Compound 19, 2-(Isopropylthio)-6-(3-methoxyphenyl)-4-(4-methoxyphenyl)pyrimidine]
[1]
  inhibition at 10 µM: < 0%
[2]
  inhibition at 10 µM: < 0%
[3]
  inhibition at 10 µM: 23.6%
[4]
  inhibition at 10 µM: 4.28%
[5]
  inhibition at 10 µM: < 0%
[6]
  inhibition at 10 µM: 8.76%
[7]
  inhibition at 10 µM: 7.18%
[8]
  inhibition at 10 µM: 23.8%
[9]
  inhibition at 10 µM: 6.05%
[10]
  inhibition at 10 µM: 18.5%
[11]
  inhibition at 10 µM: 11.6%
[12]
  inhibition at 10 µM: 10.1%
[13]
  inhibition at 10 µM: 29.5%
[14]
  inhibition at 10 µM: 5.72%
[15]
  inhibition at 10 µM: < 0%
[16]
  inhibition at 10 µM: 9.81%
[17]
  inhibition at 10 µM: 24.1%
[18]
  inhibition at 10 µM: 3.92%
[19]
  inhibition at 10 µM: 18.9%
[20]
  inhibition at 10 µM: 21%
[21]
  inhibition at 10 µM: < 0%
[22]
  inhibition at 10 µM: < 0%
[23]
  inhibition at 10 µM: 17.3%
[24]
  inhibition at 10 µM: 7.53%
[25]
  inhibition at 10 µM: 22.6%
[26]
  inhibition at 10 µM: < 0%
[27]
  inhibition at 10 µM: 27.6%
[28]
  inhibition at 10 µM: 0.61%
[29]
  inhibition at 10 µM: 7.31%
[30]
  inhibition at 10 µM: < 0%
[31]
  inhibition at 10 µM: 4.58%
[32]
  inhibition at 10 µM: < 0%
[33]
  inhibition at 10 µM: 0.02%
[34]
  inhibition at 10 µM: 4.09%
[35]
  inhibition at 10 µM: 10.2%
[36]
  inhibition at 10 µM: 20.2%
[37]
  inhibition at 10 µM: < 0%
[38]
  inhibition at 10 µM: 10.7%
[39]
  inhibition at 10 µM: < 0%
[40]
  inhibition at 10 µM: 2.13%
[41]
  inhibition at 10 µM: < 0%
[42]
  inhibition at 10 µM: 9.86%
[43]
  inhibition at 10 µM: 25.5%
[44]
  inhibition at 10 µM: 22.7%
[45]
  inhibition at 10 µM: 4.92%
[46]
  inhibition at 10 µM: 6.85%
[47]
  inhibition at 10 µM: 15.9%
[48]
  inhibition at 10 µM: 17.2%
